Measured values as given in patent US6812236B2, “Compounds useful in therapy” (Pfizer Inc., priority 1999, dated 2004).

Biological target: T1, mu opioid receptor (Canis lupus familiaris, UniProt A0A0F6TMT6)
T1 construct: Laboratory bred beagles were used as a source of dog brain tissue; from tissue; host or cells: beagle dog brain without cerebellum, washed membrane pellet
Assay: mu opioid receptor binding assay in dog brain membranes (3H-DAMGO displacement)
Conditions: dog brain tissue, read-out: Ki values for the μ receptor
Description: The assays were conducted by the following procedure.
Laboratory bred beagles were used as a source of dog brain tissue. Animals were euthanised, their brains removed and the cerebellum discarded. The remaining brain tissue was sectioned into small pieces approximately 3 g in weight and homogenised in 50 mM Tris pH 7.4 buffer at 4° C. using a Kinematica Polytron™ tissue homogeniser. The resulting homogenate was centrifuged at 48,400× g for 10 minutes and the supernatant discarded. The pellet was resuspended in Tris buffer and incubated at 37° C. for 10 minutes. Centrifugation, resuspension and incubation steps were repeated twice more, and the final pellet was resuspended in Tris buffer and stored at −80° C. Membrane material prepared in this manner could be stored for up to four weeks prior to use.
For mu assays, increasing concentrations of experimental compound, (5×10^−12 to 10^−5 M), Tris buffer and ^3H ligand, ([D-Ala^2,N-Me-Phe^4,Gly-ol^5]-Enkephalin, DAMGO), were combined in polystyrene tubes. The reaction was initiated by the addition of tissue, and the mixture was incubated at room temperature for 90 minutes. The reaction was terminated by rapid filtration using a Brandel Cell Harvester™ through Betaplate™ GF/A glass fibre filters pre-soaked in 50 mM Tris pH 7.4, 0.1% polyethylenimine buffer. The filters were then washed three times with 0.5 mL ice-cold Tris pH 7.4 buffer. Washed filters were placed in bags and Starscint™ scintillant added. Bags containing the filters and scintillant were heat sealed and counted by a Betaplate™ 1204 beta counter.
Duplicate samples were run for each experimental compound and the data generated was analysed using IC50 analysis software in Graphpad Prism. Ki values were calculated using Graphpad Prism according to the following formula: […]
where IC50 is the concentration at which 50% of the ^3H ligand is displaced by the test compound and KD is the dissociation constant for the ^3H ligand at the receptor site.

T1 sequence (A0A0F6TMT6 1-401): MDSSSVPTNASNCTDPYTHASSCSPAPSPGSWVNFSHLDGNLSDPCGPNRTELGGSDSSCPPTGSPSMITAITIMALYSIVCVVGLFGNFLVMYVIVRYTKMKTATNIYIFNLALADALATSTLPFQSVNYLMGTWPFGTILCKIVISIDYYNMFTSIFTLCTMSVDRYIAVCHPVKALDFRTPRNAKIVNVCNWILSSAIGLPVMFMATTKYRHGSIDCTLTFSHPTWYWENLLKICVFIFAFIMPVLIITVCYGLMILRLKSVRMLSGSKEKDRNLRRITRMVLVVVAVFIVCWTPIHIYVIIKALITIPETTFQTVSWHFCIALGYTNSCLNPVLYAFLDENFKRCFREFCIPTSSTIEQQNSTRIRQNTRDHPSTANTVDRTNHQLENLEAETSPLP

Compound	Ki [µM]
CCCCCCN1CCC(C)(c2cccc(C(=O)NCC)c2)C(C)C1 (stereo not shown) [Example 8, 1-Hexyl-3,4-dimethyl-4-(3-(N-ethyl)amidophenyl)-piperidine]	≤ 4
CCNC(=O)c1cccc(C2(C)CCN(CCCCCC#N)CC2C)c1 (stereo not shown) [Example 20, 1-(5-Cyanopentyl)-3,4-dimethyl-4-(3-(N-ethyl)-amidophenyl)piperidine]	≤ 4
CCCCCCN1CCC(C)(c2cccc(C(=O)NC(C)C)c2)C(C)C1 (stereo not shown) [Example 4, 1-Hexyl-3,4-dimethyl-4-(3-(N-isopropyl)amidophenyl)-piperidine]	≤ 4
CCNC(=O)c1cccc(C2(C)CCN(CCCCC(C)C)CC2C)c1 (stereo not shown) [Example 18, 1-(5-Methylhexyl)-3,4-dimethyl-4-(3-(N-ethyl)-amidophenyl)piperidine]	≤ 4
